Patent US11357814B2, “Application of Sarcococca vagans, Chinese medicinal ointment for treating skin disease, preparation method and application thereof” (priority 2017, dated 2022)

Assays:
[1] = system: capillary permeability of mouse abdominal cavities; experiment: Inhibition of capillary permeability of mouse abdominal cavities, Evans blue / glacial acetic acid (Effect Example 7); assay type: in vivo, Kunming mice; settings: dexamethasone 9.9 ug/kg fed; 580 nm
Excerpt: Test for Sarcococca […] effect of inhibiting capillary permeability. Roots of Sarcococca […] dried in the sun, and ground to powder for subsequent use. 1. […] 2. Test reagent: Sarcococca […] powder, dexamethasone acetate tablets (Zhejiang Xianju Pharmaceutical Co., Ltd., batch No. 120347), and glacial acetic acid and xylene were both analytically pure. 3. […] After the Sarcococca […] powder was sieved by 120 meshes, a suitable amount of the Sarcococca […] powder was taken and dissolved in a 0.5% sodium carboxymethylcellulose solution, to prepare high-dosage (0.30 g/ml), medium-dosage (0.15 g/ml), and low-dosage (0.075 g/ml) Sarcococca […] powder suspension. The dexamethasone acetate tablets were ground in the 0.5% sodium carboxymethylcellulose solution, to prepare 19.8 ug/ml suspension. […] For each group, the mice were fed twice each day for the first two days, fed once on the third day, after 30 min, the animals in each group were injected with Evans blue saline at 0.1 ml/10 g through tail vein, then were intraperitoneally injected with 0.9% glacial acetic acid, 40 min after the injection, each animal was killed by cervical dislocation, whose abdominal cavity was washed with saline, and a washing liquid was collected, to be adjusted to a volume of 7 ml, centrifuged at 3000 r/min for 5 min, and measured in absorbance at a 580 nm wavelength.

[2] = system: xylene-induced mouse ear edema; experiment: Xylene-induced mouse ear edema (Effect Example 6); assay type: in vivo, Kunming mice; settings: dexamethasone 9.9 ug/kg fed
Excerpt: Influences of Sarcococca […] to xylene-induced mouse ear edema. Roots of Sarcococca […] dried in the sun, and ground to powder for subsequent use. 1. […] Test reagent: Sarcococca […] powder, dexamethasone acetate tablets (Zhejiang Xianju Pharmaceutical Co., Ltd., batch No. 120347), and glacial acetic acid and xylene were both analytically pure. 3. […] After the Sarcococca […] powder was sieved by 120 meshes, a suitable amount of the Sarcococca […] powder was taken and dissolved in a 0.5% sodium carboxymethylcellulose solution, to prepare high-dosage (0.30 g/ml), medium-dosage (0.15 g/ml), and low-dosage (0.075 g/ml) Sarcococca […] powder suspension. The dexamethasone acetate tablets were ground in the 0.5% sodium carboxymethylcellulose solution, to prepare 19.8 ug/ml suspension. […] For each group, the mice were fed twice each day for first two days, once on the third day, and after 30 min, 0.05 ml of xylene was applied to both front and back faces of right ear of each mouse in each group, while left ear was not coated with the medicine as control. 40 min after the coating, the mice were killed by cervical dislocation, the left and right ears were cut off, and ear slices at the same parts of the two ears were taken with a puncher and weighed. The difference between weights of the left and right ears is swelling degree. Each group was recorded, and t test was carried out among the groups. […]

allergic dermatitis = experiment: Clinical treatment of allergic skin diseases with ointment (Effect Example 2); assay type: in vivo, human
Excerpt: For the purpose of explaining application of the Chinese medicinal ointment provided in the present disclosure for treating allergic skin diseases, for example, treating dermatitis and eczema.
1. Subjects: 300 patients were collected clinically, with […] and 131 females, between 19 years old and 68 years old, all of whom suffered from allergic dermatitis.
(§1) 2. Test grouping: the patients were randomly grouped into 3 groups, 100 patients in each group. The Chinese medicinal ointment prepared in Examples 1-9 was used for the test group, the Chinese medicinal ointment prepared in the comparative example was used for Control Group 1, and another commercially available ointment for treating dermatitis, e.g. Fluocinolone acetonide, was used for Control Group 2. For each patient, the corresponding ointment was applied on affected parts twice a day, for 1 month continuously.
(§2) 3. Criterion of therapeutic effect:
Cured: clinical symptoms completely disappear;
Total effective rate=(cured cases+effective cases)/total cases

[3] = system: tinea capitis, tinea corporis, tinea cruris or tinea of feet and hands; experiment: Clinical treatment of fungal skin diseases with ointment (Effect Example 3); assay type: in vivo, human
Excerpt: For the purpose of explaining application of the Chinese medicinal ointment provided in the present disclosure for treating fungal skin diseases, for example, treating tinea capitis, tinea corporis, tinea cruris and tinea of feet and hands.
1. Subjects: 150 patients were collected clinically, with 101 males and 49 females, between 16 years old and 65 years old, all of whom suffered from tinea capitis, tinea corporis, tinea cruris or tinea of feet and hands.
as §1, with “50” for “100”, “tinea corporis,” for “dermatitis,”, “Ketoconazole,” for “Fluocinolone acetonide,”, “2 months” for “1 month”
as §2
Cured: Fungi microscopic examination is negative, and tinea and pruritus completely disappear;
Effective: Fungi microscopic examination is negative, tinea substantially disappears, and pruritus is evidently alleviated;
Ineffective: Fungi microscopic examination is positive, and tinea and pruritus are not relieved. Total effective rate=(cured cases+effective cases)/total cases

[4] = cases of 50 patients per group, twice a day for 2 months

CC(=O)OCC(=O)[C@@]1(O)[C@H](C)C[C@H]2[C@@H]3CCC4=CC(=O)C=C[C@]4(C)[C@@]3(F)[C@@H](O)C[C@@]21C [Dexamethasone, dexamethasone acetate]
Absorbance (A) [1]: 0.569 ± 0.238 ^
Swelling Degree ([2]; 40 min after xylene): 0.0101 ± 0.0034 g
Swelling Inhibition Rate ([2]; vs normal group): 20.0%

CC1(C)O[C@@H]2C[C@H]3[C@@H]4C[C@H](F)C5=CC(=O)C=C[C@]5(C)[C@@]4(F)[C@@H](O)C[C@]3(C)[C@]2(C(=O)CO)O1 [Fluocinolone acetonide]
Total Effective Rate (allergic dermatitis; (cured cases+effective cases)/total cases, twice a day for 1 month): 77%
Cured (allergic dermatitis; cases of 100 patients per group, applied twice a day for 1 month, clinical symptoms completely disappear): 40
Ineffective (allergic dermatitis; cases of 100 patients per group, twice a day for 1 month): 23
Effective (allergic dermatitis; cases of 100 patients per group, twice a day for 1 month, symptoms evidently improved): 37

CC(=O)N1CCN(c2ccc(OCC3COC(Cn4ccnc4)(c4ccc(Cl)cc4Cl)O3)cc2)CC1 (centres unmarked) [Ketoconazole]
Total Effective Rate ([3]; (cured cases+effective cases)/total cases, twice a day for 2 months): 74%
Cured ([3]; cases of 50 patients per group, applied twice a day for 2 months, fungi microscopic examination negative, tinea and pruritus completely disappear): 16
Effective [3, 4]: 21
Ineffective [3, 4]: 13
